In the supplement of paper PMC10307832:

Legend:
Test in all cases: relative viability (nuclei count vs DMSO), 5 days (fraction); higher = more cells survive
UMC-11 = tested on: UMC-11
How it was run: (§1)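 Relative viability equals treated-well nuclei counts divided by vehicle-well nuclei counts. Counts came from 4× images of lung cancer cell lines grown in 1536-well plates for 5 days after pin-tool dosing on the day after seeding. Dosing used one drug alone or a fixed anchor-drug dose plus five library-drug doses (not always all listed) in √10 steps, and values are medians of duplicate plates.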

NCI-H2405 = tested on: NCI-H2405
How it was run: as §1

NCI-H1437 = tested on: NCI-H1437
How it was run: as §1

LCLC-97TM1 = tested on: LCLC-97TM1
How it was run: as §1

NCI-H2085 = tested on: NCI-H2085
How it was run: as §1

NCI-H441 = tested on: NCI-H441
How it was run: as §1

NCI-H2170 = tested on: NCI-H2170
How it was run: as §1

ChaGo-K-1 = tested on: ChaGo-K-1
How it was run: as §1

ABC-1 = tested on: ABC-1
How it was run: as §1

NCI-H2023 = tested on: NCI-H2023
How it was run: as §1

HCC-78 = tested on: HCC-78
How it was run: as §1

NCI-H322M = tested on: NCI-H322M
How it was run: as §1

NCI-H1355 = tested on: NCI-H1355
How it was run: as §1

SK-MES-1 = tested on: SK-MES-1
How it was run: as §1

NCI-H2009 = tested on: NCI-H2009
How it was run: as §1

LOU-NH91 = tested on: LOU-NH91
How it was run: as §1

HOP-62 = tested on: HOP-62
How it was run: as §1

NCI-H727 = tested on: NCI-H727
How it was run: as §1

NCI-H23 = tested on: NCI-H23
How it was run: as §1

NCI-H1792 = tested on: NCI-H1792
How it was run: as §1

RERF-LC-KJ = tested on: RERF-LC-KJ
How it was run: as §1

NCI-H650 = tested on: NCI-H650
How it was run: as §1

NCI-H1755 = tested on: NCI-H1755
How it was run: as §1

`O=C(O)CCCCC(CCSCc1ccccc1)SCc1ccccc1` (centres undefined) [CPI-613] + C[C@@H](Oc1cc(-c2cnn(C3CCNCC3)c2)cnc1N)c1c(Cl)ccc(F)c1Cl [Crizotinib] (partner 1 µM) was tested, and the relative viability (UMC-11; first compound 5 µM) was 0.578, the relative viability (UMC-11; first compound 15.81 µM) was 0.668 and the relative viability (UMC-11; first compound 50 µM) was 0.696. For the same molecule, the relative viability (UMC-11; first compound 158.11 µM) was 0.298, the relative viability (UMC-11; first compound 500 µM) was 0.0636 and the relative viability (NCI-H2405; first compound 5 µM) was 0.855. It also gave a relative viability (NCI-H2405; first compound 15.81 µM) of 0.842, a relative viability (NCI-H2405; first compound 50 µM) of 0.825 and a relative viability (NCI-H2405; first compound 158.11 µM) of 0.828. The relative viability (NCI-H2405; first compound 500 µM) was 0.829, the relative viability (NCI-H1437; first compound 5 µM) was 0.96 and the relative viability (NCI-H1437; first compound 15.81 µM) was 0.794. It also gave a relative viability (NCI-H1437; first compound 50 µM) of 0.857, a relative viability (NCI-H1437; first compound 158.11 µM) of 0.229 and a relative viability (NCI-H1437; first compound 500 µM) of 0.0274. It also gave a relative viability (LCLC-97TM1; first compound 5 µM) of 0.465, a relative viability (LCLC-97TM1; first compound 15.81 µM) of 0.516 and a relative viability (LCLC-97TM1; first compound 50 µM) of 0.379. The relative viability (LCLC-97TM1; first compound 158.11 µM) was 0.11, the relative viability (LCLC-97TM1; first compound 500 µM) was 0.0433 and the relative viability (NCI-H2085; first compound 5 µM) was 0.786. The relative viability (NCI-H2085; first compound 15.81 µM) was 0.886, the relative viability (NCI-H2085; first compound 50 µM) was 0.839 and the relative viability (NCI-H2085; first compound 158.11 µM) was 0.415. It also gave a relative viability (NCI-H2085; first compound 500 µM) of 0.231, a relative viability (NCI-H441; first compound 5 µM) of 0.685 and a relative viability (NCI-H441; first compound 15.81 µM) of 0.683. The relative viability (NCI-H441; first compound 50 µM) was 0.635, the relative viability (NCI-H441; first compound 158.11 µM) was 0.303 and the relative viability (NCI-H441; first compound 500 µM) was 0.343. It also gave a relative viability (NCI-H2170; first compound 5 µM) of 1.15, a relative viability (NCI-H2170; first compound 15.81 µM) of 1.18 and a relative viability (NCI-H2170; first compound 50 µM) of 1.13. For the same molecule, the relative viability (NCI-H2170; first compound 158.11 µM) was 0.746, the relative viability (NCI-H2170; first compound 500 µM) was 0.335 and the relative viability (ChaGo-K-1; first compound 5 µM) was 1.14. It also gave a relative viability (ChaGo-K-1; first compound 15.81 µM) of 1.05, a relative viability (ChaGo-K-1; first compound 50 µM) of 0.992 and a relative viability (ChaGo-K-1; first compound 158.11 µM) of 1.04. It also gave a relative viability (ChaGo-K-1; first compound 500 µM) of 0.813, a relative viability (ABC-1; first compound 5 µM) of 0.984 and a relative viability (ABC-1; first compound 15.81 µM) of 0.855. For the same molecule, the relative viability (ABC-1; first compound 50 µM) was 0.875, the relative viability (ABC-1; first compound 158.11 µM) was 0.367 and the relative viability (ABC-1; first compound 500 µM) was 0.213. It also gave a relative viability (NCI-H2023; first compound 5 µM) of 0.583, a relative viability (NCI-H2023; first compound 15.81 µM) of 0.605 and a relative viability (NCI-H2023; first compound 50 µM) of 0.598. It also gave a relative viability (NCI-H2023; first compound 158.11 µM) of 0.388, a relative viability (NCI-H2023; first compound 500 µM) of 0.0057 and a relative viability (HCC-78; first compound 5 µM) of 0.346. The relative viability (HCC-78; first compound 15.81 µM) was 0.318, the relative viability (HCC-78; first compound 158.11 µM) was 0.348 and the relative viability (HCC-78; first compound 500 µM) was 0.331. The relative viability (NCI-H322M; first compound 5 µM) was 0.917, the relative viability (NCI-H322M; first compound 15.81 µM) was 0.917 and the relative viability (NCI-H322M; first compound 50 µM) was 1. The relative viability (NCI-H322M; first compound 158.11 µM) was 0.996, the relative viability (NCI-H322M; first compound 500 µM) was 1.01 and the relative viability (NCI-H1355; first compound 5 µM) was 1.09. For the same molecule, the relative viability (NCI-H1355; first compound 15.81 µM) was 1.01, the relative viability (NCI-H1355; first compound 50 µM) was 1.07 and the relative viability (NCI-H1355; first compound 158.11 µM) was 0.152. For the same molecule, the relative viability (NCI-H1355; first compound 500 µM) was 0.136, the relative viability (SK-MES-1; first compound 5 µM) was 0.918 and the relative viability (SK-MES-1; first compound 15.81 µM) was 0.961. The relative viability (SK-MES-1; first compound 50 µM) was 0.936, the relative viability (SK-MES-1; first compound 158.11 µM) was 0.926 and the relative viability (SK-MES-1; first compound 500 µM) was 0.734. It also gave a relative viability (NCI-H2009; first compound 5 µM) of 1.1, a relative viability (NCI-H2009; first compound 15.81 µM) of 1.01 and a relative viability (NCI-H2009; first compound 50 µM) of 1.04. It also gave a relative viability (NCI-H2009; first compound 158.11 µM) of 0.462, a relative viability (NCI-H2009; first compound 500 µM) of 0.0097 and a relative viability (LOU-NH91; first compound 5 µM) of 0.801. The relative viability (LOU-NH91; first compound 15.81 µM) was 0.692, the relative viability (LOU-NH91; first compound 50 µM) was 0.765 and the relative viability (LOU-NH91; first compound 158.11 µM) was 0.71. It also gave a relative viability (LOU-NH91; first compound 500 µM) of 0.722, a relative viability (HOP-62; first compound 5 µM) of 0.862 and a relative viability (HOP-62; first compound 15.81 µM) of 0.85. For the same molecule, the relative viability (HOP-62; first compound 50 µM) was 0.851, the relative viability (HOP-62; first compound 158.11 µM) was 0.172 and the relative viability (HOP-62; first compound 500 µM) was 0.387. The relative viability (NCI-H727; first compound 5 µM) was 0.875, the relative viability (NCI-H727; first compound 15.81 µM) was 0.743 and the relative viability (NCI-H727; first compound 50 µM) was 0.797. The relative viability (NCI-H727; first compound 158.11 µM) was 0.244, the relative viability (NCI-H727; first compound 500 µM) was 0.0831 and the relative viability (NCI-H23; first compound 5 µM) was 0.542. The relative viability (NCI-H23; first compound 15.81 µM) was 0.563, the relative viability (NCI-H23; first compound 50 µM) was 0.488 and the relative viability (NCI-H23; first compound 158.11 µM) was 0.189. It also gave a relative viability (NCI-H23; first compound 500 µM) of 0.0618, a relative viability (NCI-H1792; first compound 5 µM) of 0.937 and a relative viability (NCI-H1792; first compound 15.81 µM) of 0.909. For the same molecule, the relative viability (NCI-H1792; first compound 50 µM) was 0.914, the relative viability (NCI-H1792; first compound 158.11 µM) was 0.91 and the relative viability (NCI-H1792; first compound 500 µM) was 0.753. The relative viability (RERF-LC-KJ; first compound 5 µM) was 0.841, the relative viability (RERF-LC-KJ; first compound 15.81 µM) was 0.789 and the relative viability (RERF-LC-KJ; first compound 50 µM) was 0.76. The relative viability (RERF-LC-KJ; first compound 158.11 µM) was 0.876, the relative viability (RERF-LC-KJ; first compound 500 µM) was 0.268 and the relative viability (NCI-H650; first compound 5 µM) was 0.665. For the same molecule, the relative viability (NCI-H650; first compound 15.81 µM) was 0.703, the relative viability (NCI-H650; first compound 50 µM) was 0.677 and the relative viability (NCI-H650; first compound 158.11 µM) was 0.626. For the same molecule, the relative viability (NCI-H650; first compound 500 µM) was 0.649, the relative viability (NCI-H1755; first compound 5 µM) was 0.795 and the relative viability (NCI-H1755; first compound 15.81 µM) was 0.835. The relative viability (NCI-H1755; first compound 50 µM) was 0.822, the relative viability (NCI-H1755; first compound 158.11 µM) was 0.386 and the relative viability (NCI-H1755; first compound 500 µM) was 0.142.
